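Method: 48-hour compound exposure of cells in 96-well plates, five concentrations, linear interpolation of endpoints. Definition used: TGI = concentration required for complete inhibition of growth.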
Tests used:
Assay in all cases: inhibition of tumour cell growth, NCI panel, 48 h
786-0 renal = system: 786-0 renal
A498 renal = system: A498 renal
A549 NSCLC = system: A549 NSCLC
ACHN renal = system: ACHN renal
BT-549 breast = system: BT-549 breast
CAKI-1 renal = system: CAKI-1 renal
COLO 205 colon = system: COLO 205 colon
DU-145 prostate = system: DU-145 prostate
HCC-2998 colon = system: HCC-2998 colon
HCT-116 colon = system: HCT-116 colon
HCT-15 colon = system: HCT-15 colon
HL-60(TB) leukemia = system: HL-60(TB) leukemia
HOP-62 NSCLC = system: HOP-62 NSCLC
HOP-92 NSCLC = system: HOP-92 NSCLC
HS 578T breast = system: HS 578T breast
HT29 colon = system: HT29 colon
IGROV1 ovarian = system: IGROV1 ovarian
KM12 colon = system: KM12 colon
LOX IMVI melanoma = system: LOX IMVI melanoma
M14 melanoma = system: M14 melanoma
MALME-3M melanoma = system: MALME-3M melanoma
MCF7 breast = system: MCF7 breast
MDA-MB-231 breast = system: MDA-MB-231 breast
MDA-MB-435 = system: MDA-MB-435
MDA-N = system: MDA-N
MOLT-4 leukemia = system: MOLT-4 leukemia
NCI-H226 lung = system: NCI-H226 lung
NCI-H23 lung = system: NCI-H23 lung
NCI-H460 lung = system: NCI-H460 lung
NCI-H522 lung = system: NCI-H522 lung
NCI/ADR-RES ovarian = system: NCI/ADR-RES ovarian
OVCAR-3 ovarian = system: OVCAR-3 ovarian
OVCAR-4 ovarian = system: OVCAR-4 ovarian
OVCAR-5 ovarian = system: OVCAR-5 ovarian
OVCAR-8 ovarian = system: OVCAR-8 ovarian
PC-3 prostate = system: PC-3 prostate
RPMI-8226 leukemia = system: RPMI-8226 leukemia
RXF 393 renal = system: RXF 393 renal
SF-268 CNS = system: SF-268 CNS
SF-295 CNS = system: SF-295 CNS
SF-539 CNS = system: SF-539 CNS
SK-MEL-2 melanoma = system: SK-MEL-2 melanoma
SK-MEL-28 melanoma = system: SK-MEL-28 melanoma
SK-MEL-5 melanoma = system: SK-MEL-5 melanoma
SK-OV-3 ovarian = system: SK-OV-3 ovarian
SN12C renal = system: SN12C renal
SNB-19 CNS = system: SNB-19 CNS
SNB-75 CNS = system: SNB-75 CNS
SR leukemia = system: SR leukemia
SW-620 colon = system: SW-620 colon
T-47D breast = system: T-47D breast
TK-10 renal = system: TK-10 renal
U251 CNS = system: U251 CNS
UACC-257 melanoma = system: UACC-257 melanoma
UACC-62 melanoma = system: UACC-62 melanoma
UO-31 renal = system: UO-31 renal
CCRF-CEM leukemia = system: CCRF-CEM leukemia
EKVX NSCLC = system: EKVX NSCLC
K-562 leukemia = system: K-562 leukemia

`COC(=O)C12CCC(C(F)(F)C1=O)C2(C)C` (stereo unspecified) gave a TGI (786-0 renal) greater than 100 µM, a TGI (A498 renal) greater than 100 µM and a TGI (A549 NSCLC) greater than 100 µM. It also gave a TGI (ACHN renal) greater than 100 µM, a TGI (BT-549 breast) greater than 100 µM and a TGI (CAKI-1 renal) greater than 100 µM. It also gave a TGI (COLO 205 colon) greater than 100 µM, a TGI (DU-145 prostate) greater than 100 µM and a TGI (HCC-2998 colon) greater than 100 µM. For the same molecule, the TGI (HCT-116 colon) was greater than 100 µM, the TGI (HCT-15 colon) was greater than 100 µM and the TGI (HL-60(TB) leukemia) was greater than 100 µM. For the same molecule, the TGI (HOP-62 NSCLC) was greater than 100 µM, the TGI (HOP-92 NSCLC) was greater than 100 µM and the TGI (HS 578T breast) was greater than 100 µM. It also gave a TGI (HT29 colon) greater than 100 µM, a TGI (IGROV1 ovarian) greater than 100 µM and a TGI (KM12 colon) greater than 100 µM. The TGI (LOX IMVI melanoma) was greater than 100 µM, the TGI (M14 melanoma) was greater than 100 µM and the TGI (MALME-3M melanoma) was greater than 100 µM. The TGI (MCF7 breast) was greater than 100 µM, the TGI (MDA-MB-231 breast) was greater than 100 µM and the TGI (MDA-MB-435) was greater than 100 µM. It also gave a TGI (MDA-N) greater than 100 µM, a TGI (MOLT-4 leukemia) greater than 100 µM and a TGI (NCI-H226 lung) greater than 100 µM. For the same molecule, the TGI (NCI-H23 lung) was greater than 100 µM, the TGI (NCI-H460 lung) was greater than 100 µM and the TGI (NCI-H522 lung) was greater than 100 µM. The TGI (NCI/ADR-RES ovarian) was greater than 100 µM, the TGI (OVCAR-3 ovarian) was greater than 100 µM and the TGI (OVCAR-4 ovarian) was greater than 100 µM. The TGI (OVCAR-5 ovarian) was greater than 100 µM, the TGI (OVCAR-8 ovarian) was greater than 100 µM and the TGI (PC-3 prostate) was greater than 100 µM. The TGI (RPMI-8226 leukemia) was greater than 100 µM, the TGI (RXF 393 renal) was greater than 100 µM and the TGI (SF-268 CNS) was greater than 100 µM. For the same molecule, the TGI (SF-295 CNS) was greater than 100 µM, the TGI (SF-539 CNS) was greater than 100 µM and the TGI (SK-MEL-2 melanoma) was greater than 100 µM. For the same molecule, the TGI (SK-MEL-28 melanoma) was greater than 100 µM, the TGI (SK-MEL-5 melanoma) was greater than 100 µM and the TGI (SK-OV-3 ovarian) was greater than 100 µM. For the same molecule, the TGI (SN12C renal) was greater than 100 µM, the TGI (SNB-19 CNS) was greater than 100 µM and the TGI (SNB-75 CNS) was greater than 100 µM. For the same molecule, the TGI (SR leukemia) was greater than 100 µM, the TGI (SW-620 colon) was greater than 100 µM and the TGI (T-47D breast) was greater than 100 µM. The TGI (TK-10 renal) was greater than 100 µM, the TGI (U251 CNS) was greater than 100 µM and the TGI (UACC-257 melanoma) was greater than 100 µM. It also gave a TGI (UACC-62 melanoma) greater than 100 µM and a TGI (UO-31 renal) greater than 100 µM.
With `S=C1NCN2CCN(CC2)CNC(=S)C(=S)NCN2CCN(CC2)CNC1=S` the TGI (786-0 renal) was greater than 100 µM, the TGI (A498 renal) was greater than 100 µM and the TGI (A549 NSCLC) was greater than 100 µM. The TGI (ACHN renal) was greater than 100 µM, the TGI (BT-549 breast) was greater than 100 µM and the TGI (CAKI-1 renal) was greater than 100 µM. For the same molecule, the TGI (CCRF-CEM leukemia) was 62.3 µM, the TGI (COLO 205 colon) was greater than 100 µM and the TGI (DU-145 prostate) was greater than 100 µM. The TGI (EKVX NSCLC) was greater than 100 µM, the TGI (HCC-2998 colon) was greater than 100 µM and the TGI (HCT-116 colon) was greater than 100 µM. The TGI (HCT-15 colon) was greater than 100 µM, the TGI (HL-60(TB) leukemia) was greater than 100 µM and the TGI (HOP-62 NSCLC) was greater than 100 µM. The TGI (HOP-92 NSCLC) was greater than 100 µM, the TGI (HS 578T breast) was greater than 100 µM and the TGI (HT29 colon) was greater than 100 µM. For the same molecule, the TGI (IGROV1 ovarian) was greater than 100 µM, the TGI (K-562 leukemia) was greater than 100 µM and the TGI (KM12 colon) was greater than 100 µM. The TGI (LOX IMVI melanoma) was 56.4 µM, the TGI (M14 melanoma) was greater than 100 µM and the TGI (MALME-3M melanoma) was greater than 100 µM. It also gave a TGI (MCF7 breast) greater than 100 µM, a TGI (MDA-MB-231 breast) greater than 100 µM and a TGI (MDA-MB-435) greater than 100 µM. For the same molecule, the TGI (MDA-N) was greater than 100 µM, the TGI (NCI-H226 lung) was greater than 100 µM and the TGI (NCI-H23 lung) was greater than 100 µM. The TGI (NCI-H460 lung) was 46.3 µM, the TGI (NCI-H522 lung) was greater than 100 µM and the TGI (NCI/ADR-RES ovarian) was greater than 100 µM. It also gave a TGI (OVCAR-3 ovarian) of 98.9 µM, a TGI (OVCAR-4 ovarian) greater than 100 µM and a TGI (OVCAR-5 ovarian) greater than 100 µM. It also gave a TGI (OVCAR-8 ovarian) greater than 100 µM, a TGI (PC-3 prostate) greater than 100 µM and a TGI (RPMI-8226 leukemia) of 97.3 µM. For the same molecule, the TGI (RXF 393 renal) was greater than 100 µM, the TGI (SF-268 CNS) was greater than 100 µM and the TGI (SF-295 CNS) was greater than 100 µM. The TGI (SK-MEL-2 melanoma) was greater than 100 µM, the TGI (SK-MEL-28 melanoma) was greater than 100 µM and the TGI (SK-MEL-5 melanoma) was greater than 100 µM. It also gave a TGI (SK-OV-3 ovarian) greater than 100 µM, a TGI (SN12C renal) greater than 100 µM and a TGI (SNB-19 CNS) greater than 100 µM. The TGI (SNB-75 CNS) was greater than 100 µM, the TGI (SR leukemia) was greater than 100 µM and the TGI (SW-620 colon) was greater than 100 µM. For the same molecule, the TGI (T-47D breast) was greater than 100 µM, the TGI (TK-10 renal) was greater than 100 µM and the TGI (U251 CNS) was greater than 100 µM. For the same molecule, the TGI (UACC-257 melanoma) was greater than 100 µM, the TGI (UACC-62 melanoma) was greater than 100 µM and the TGI (UO-31 renal) was greater than 100 µM.
With `COc1ccc(P2(=S)Oc3ccc(C(c4ccccc4)(c4ccccc4)c4ccccc4)cc3O2)cc1` (stereo unspecified) the TGI (786-0 renal) was 32.2 µM, the TGI (A498 renal) was 31.8 µM and the TGI (A549 NSCLC) was 30.7 µM. For the same molecule, the TGI (ACHN renal) was 30.5 µM, the TGI (BT-549 breast) was 41.3 µM and the TGI (CAKI-1 renal) was 33.9 µM. The TGI (CCRF-CEM leukemia) was 49 µM, the TGI (COLO 205 colon) was 34.5 µM and the TGI (DU-145 prostate) was 35.1 µM. The TGI (EKVX NSCLC) was 34.6 µM, the TGI (HCC-2998 colon) was 30.6 µM and the TGI (HCT-116 colon) was 32 µM. The TGI (HCT-15 colon) was 34.8 µM, the TGI (HL-60(TB) leukemia) was 32.1 µM and the TGI (HOP-62 NSCLC) was 41.5 µM. It also gave a TGI (HOP-92 NSCLC) of 32.4 µM, a TGI (HS 578T breast) of 41 µM and a TGI (HT29 colon) of 33.4 µM. For the same molecule, the TGI (IGROV1 ovarian) was 32.1 µM, the TGI (K-562 leukemia) was 33.8 µM and the TGI (KM12 colon) was 28.5 µM. The TGI (LOX IMVI melanoma) was 28 µM, the TGI (M14 melanoma) was 27.3 µM and the TGI (MALME-3M melanoma) was 34.8 µM. It also gave a TGI (MCF7 breast) of 34.9 µM, a TGI (MDA-MB-231 breast) of 38.9 µM and a TGI (MDA-MB-435) of 30.1 µM. It also gave a TGI (MDA-N) of 32.7 µM, a TGI (MOLT-4 leukemia) of 41.7 µM and a TGI (NCI-H226 lung) of 31.6 µM. For the same molecule, the TGI (NCI-H23 lung) was 31.7 µM, the TGI (NCI-H460 lung) was 34.8 µM and the TGI (NCI-H522 lung) was 31.9 µM. The TGI (NCI/ADR-RES ovarian) was 39.5 µM, the TGI (OVCAR-3 ovarian) was 31 µM and the TGI (OVCAR-4 ovarian) was 25.9 µM. The TGI (OVCAR-5 ovarian) was 33.6 µM, the TGI (OVCAR-8 ovarian) was 29.8 µM and the TGI (PC-3 prostate) was 27.1 µM. It also gave a TGI (RPMI-8226 leukemia) of 48.1 µM, a TGI (SF-268 CNS) of 32.2 µM and a TGI (SF-295 CNS) of 33.5 µM. The TGI (SF-539 CNS) was 34.4 µM, the TGI (SK-MEL-2 melanoma) was 35.3 µM and the TGI (SK-MEL-28 melanoma) was 34.3 µM. For the same molecule, the TGI (SK-MEL-5 melanoma) was 36.2 µM, the TGI (SK-OV-3 ovarian) was 37.5 µM and the TGI (SN12C renal) was 31.7 µM. The TGI (SNB-19 CNS) was 29.8 µM, the TGI (SNB-75 CNS) was 26.8 µM and the TGI (SR leukemia) was 47.5 µM. For the same molecule, the TGI (SW-620 colon) was 34.6 µM, the TGI (T-47D breast) was 28 µM and the TGI (TK-10 renal) was 33.4 µM. It also gave a TGI (U251 CNS) of 31.9 µM, a TGI (UACC-257 melanoma) of 34.2 µM and a TGI (UACC-62 melanoma) of 26.2 µM. The TGI (UO-31 renal) was 30.8 µM.

Reference: PubChem BioAssay (NCI)
